Counter-ions that a name gives are not always drawn.
target: MCH receptor (Homo sapiens, UniProt Q99705); assay: High throughput functional screening FLIPR/FDSS6000 (intracellular Ca2+ evoked by MCH); assay type: cell-based; conditions: FLIPR/FDSS, antagonist activity vs 50 nM MCH; class by percent of control at 10^−7 M or IC50; read-out: class
Procedure, shortened: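 For antagonist testing, compound-treated cells (30 min, 37 °C) were stimulated with 50 nM MCH and intracellular Ca2+ followed by Fluo4 fluorescence on FLIPR/FDSS6000. Receptor was a constitutively active, non-endogenous MCH receptor; dye loading 4 μM Fluo4-AM, 1 h, 37 °C.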

CNc1nc(N[C@H]2CC[C@@H](NC(=O)COc3cc(C(F)(F)F)nn3C)CC2)ncc1C [Example 3362, N-(cis-4-{[5-methyl-4-(methylamino)pyrimidin-2-yl]amino}-cyclohexyl)-2-{[1-methyl-3-(trifluoromethyl)-1H-pyrazol-5-yl]oxy}acetamide] and CNc1nc(N[C@H]2CC[C@@H](NC(=O)COc3cc(C(F)(F)F)n(C)n3)CC2)ncc1C [Example 3364, N-(cis-4-{[5-methyl-4-(methylamino)pyrimidin-2-yl]amino}-cyclohexyl)-2-{[1-methyl-5-(trifluoromethyl)-1H-pyrazol-3-yl]oxy}acetamide] cannot be ordered by IC50: over 200 nM for the first, over 200 nM for the second.

CNc1nc(N[C@H]2CC[C@@H](NC(=O)COc3cc(C(F)(F)F)ncn3)CC2)ncc1C [Example 3363, N-(cis-4-{[5-methyl-4-(methylamino)pyrimidin-2-yl]amino}-cyclohexyl)-2-{[6-(trifluoromethyl)pyrimidin-4-yl]oxy}acetamide] and Cc1cc(N(C)C)nc(N[C@H]2CC[C@@H](NC(=O)c3cccnc3S(=O)(=O)c3ccccc3C(F)(F)F)CC2)n1 [Example 3381, N-(cis-4-{[4-(dimethylamino)-6-methylpyrimidin-2-yl]amino}cyclohexyl)-2-{[2-(trifluoromethyl)phenyl]-sulfonyl}nicotinamide] cannot be ordered by IC50: over 200 nM for the first, over 200 nM for the second.

First: Cc1cc(CN[C@H]2CC[C@@H](NC(=O)c3ccc(F)c(F)c3)CC2)nc2ccccc12 [Example 3366, 3,4-difluoro-N-(cis-4-{[(4-methylquinolin-2-yl)methyl]amino}cyclohexyl)benzamide]
Second: Cc1cc(N[C@H]2CC[C@@H](NC(=O)c3ccc(OC(F)(F)F)cc3)CC2)nc2ccccc12 [Example 3382, N-{cis-4-[(4-methylquinolin-2-yl)amino]cyclohexyl}-4-(trifluoromethoxy)benzamide]
The IC50 of the first is higher: over 200 nM for the first, under 50 nM for the second. The second is the more potent here.

First: Cc1cc(N(C)C)nc(N[C@H]2CC[C@@H](NC(=O)c3cccnc3S(=O)(=O)c3ccc(F)cc3)CC2)n1 [Example 3368, N-(cis-4-{[4-(dimethylamino)-6-methylpyrimidin-2-yl]amino}cyclohexyl)-2-[(4-fluorophenyl)sulfonyl]nicotinamide]
Second: Cc1cc(N(C)C)nc(N[C@H]2CC[C@@H](NC(=O)c3cccnc3S(=O)(=O)c3ccc(Cl)cc3)CC2)n1 [Example 3371, 2-[(4-chlorophenyl)sulfonyl]-N-(cis-4-{[4-(dimethylamino)-6-methylpyrimidin-2-yl]amino}cyclohexyl)nicotinamide]
The IC50 of the first is lower: 50 to 200 nM for the first, over 200 nM for the second.

First: Cc1cc(N(C)C)nc(N[C@H]2CC[C@@H](NC(=O)c3cccnc3S(=O)(=O)c3ccccc3Cl)CC2)n1 [Example 3369, 2-[(2-chlorophenyl)sulfonyl]-N-(cis-4-{[4-(dimethylamino)-6-methylpyrimidin-2-yl]amino}cyclohexyl)nicotinamide]
Second: Cc1cc(N(C)C)nc(N[C@H]2CC[C@@H](NC(=O)c3cccnc3S(=O)(=O)c3ccccc3Br)CC2)n1 [Example 3372, 2-[(2-bromophenyl)sulfonyl]-N-(cis-4-{[4-(dimethylamino)-6-methylpyrimidin-2-yl]amino}cyclohexyl)nicotinamide]
The IC50 of the first is lower: 50 to 200 nM for the first, over 200 nM for the second. The first is the more potent here.

Cc1cc(N(C)C)nc(N[C@H]2CC[C@@H](NC(=O)c3cccnc3S(=O)(=O)c3cccc(Cl)c3)CC2)n1 [Example 3370, 2-[(3-chlorophenyl)sulfonyl]-N-(cis-4-{[4-(dimethylamino)-6-methylpyrimidin-2-yl]amino}cyclohexyl)nicotinamide] and Cc1cc(N(C)C)nc(N[C@H]2CC[C@@H](NC(=O)c3cccnc3S(=O)(=O)c3cccc(Br)c3)CC2)n1 [Example 3373, 2-[(3-bromophenyl)sulfonyl]-N-(cis-4-{[4-(dimethylamino)-6-methylpyrimidin-2-yl]amino}cyclohexyl)nicotinamide] fall in the same range of IC50: 50 to 200 nM for the first, 50 to 200 nM for the second.

First: Cc1cc(N(C)C)nc(N[C@H]2CC[C@@H](NC(=O)c3cccnc3S(=O)(=O)c3ccc(Br)cc3)CC2)n1 [Example 3374, 2-[(4-bromophenyl)sulfonyl]-N-(cis-4-{[4-(dimethylamino)-6-methylpyrimidin-2-yl]amino}cyclohexyl)nicotinamide]
Second: Cc1ccc(S(=O)(=O)c2ncccc2C(=O)N[C@H]2CC[C@@H](Nc3nc(C)cc(N(C)C)n3)CC2)cc1 [Example 3377, N-(cis-4-{[4-(dimethylamino)-6-methylpyrimidin-2-yl]amino}cyclohexyl)-2-[(4-methylphenyl)sulfonyl]nicotinamide]
The IC50 of the first is higher: over 200 nM for the first, 50 to 200 nM for the second. The second is the more potent here.

Compared with Cc1cc(N(C)C)nc(N[C@H]2CC[C@@H](NC(=O)c3cccnc3S(=O)(=O)c3ccccc3C)CC2)n1 [Example 3375, N-(cis-4-{[4-(dimethylamino)-6-methylpyrimidin-2-yl]amino}cyclohexyl)-2-[(2-methylphenyl)sulfonyl]nicotinamide], COc1ccccc1S(=O)(=O)c1ncccc1C(=O)N[C@H]1CC[C@@H](Nc2nc(C)cc(N(C)C)n2)CC1 [Example 3378, N-(cis-4-{[4-(dimethylamino)-6-methylpyrimidin-2-yl]amino}cyclohexyl)-2-[(2-methoxyphenyl)sulfonyl]-nicotinamide] is higher in IC50: 50 to 200 nM for the first, over 200 nM for the second. The first is the more potent here.

Cc1cccc(S(=O)(=O)c2ncccc2C(=O)N[C@H]2CC[C@@H](Nc3nc(C)cc(N(C)C)n3)CC2)c1 [Example 3376, N-(cis-4-{[4-(dimethylamino)-6-methylpyrimidin-2-yl]amino}cyclohexyl)-2-[(3-methylphenyl)sulfonyl]nicotinamide] and COc1cccc(S(=O)(=O)c2ncccc2C(=O)N[C@H]2CC[C@@H](Nc3nc(C)cc(N(C)C)n3)CC2)c1 [Example 3379, N-(cis-4-{[4-(dimethylamino)-6-methylpyrimidin-2-yl]amino}cyclohexyl)-2-[(3-methoxyphenyl)sulfonyl]-nicotinamide] cannot be ordered by IC50: over 200 nM for the first, over 200 nM for the second.

With COc1ccc(S(=O)(=O)c2ncccc2C(=O)N[C@H]2CC[C@@H](Nc3nc(C)cc(N(C)C)n3)CC2)cc1 [Example 3380, N-(cis-4-{[4-(dimethylamino)-6-methylpyrimidin-2-yl]amino}cyclohexyl)-2-[(4-methoxyphenyl)sulfonyl]-nicotinamide] the IC50 was over 200 nM.

same assay, conditions: FLIPR/FDSS, antagonist activity vs 50 nM MCH; class by percent of control at 10^−7 M or IC50; table after the classification; read-out: class

Cc1cc(N(C)C)nc(N[C@H]2CC[C@@H](NC(=O)c3ccc(Cl)c(F)c3)CC2)n1 [Example 3383, 4-Chloro-N-[cis-4-(4-dimethylamino6-methyl-pyrimidin-2-ylamino)-cyclohexyl]3-fluoro-benzamide hydrochloride] and Cc1cc(N(C)C)nc(N[C@H]2CC[C@@H](NC(=O)c3cc(F)cc(Cl)c3)CC2)n1 [Example 3384, 3-Chloro-N-[cis-4-(4-dimethylamino6-methyl-pyrimidin-2-ylamino)-cyclohexyl]5-fluoro-benzamide hydrochloride] cannot be ordered by IC50: under 50 nM for the first, under 50 nM for the second.

Cc1cc(N(C)C)nc(N[C@H]2CC[C@@H](NC(=O)c3cc(F)c(F)c(F)c3)CC2)n1 [Example 3385, N-[cis-4-(4-Dimethylamino-6-methyl-pyrimidin-2-ylamino)-cyclohexyl]-3,4,5-trifluoro-benzamide hydrochloride] and Cc1cnc(N[C@H]2CC[C@@H](NC(=O)c3cc(F)c(F)c(F)c3)CC2)nc1N(C)C [Example 3389, N-[cis-4-(4-Dimethylamino-5-methyl-pyrimidin-2-ylamino)-cyclohexyl]-3,4,5-trifluoro-benzamide hydrochloride] cannot be ordered by IC50: under 50 nM for the first, under 50 nM for the second.

Compared with CNc1nc(N[C@H]2CC[C@@H](NC(=O)c3ccc(F)c(Cl)c3)CC2)ncc1C [Example 3386, 3-Chloro-4-fluoro-N-[cis-4-(5-methyl-4-methylamino-pyrimidin-2-ylamino)-cyclohexyl]-benzamide hydrochloride], Cc1cnc(N[C@H]2CC[C@@H](NC(=O)c3ccc(F)c(Cl)c3)CC2)nc1N [Example 3392, N-[cis-4-(4-Amino-5-methyl-pyrimidin-2-ylamino)-cyclohexyl]-3-chloro-4-fluoro-benzamide hydrochloride] is higher in IC50: under 50 nM for the first, over 200 nM for the second. The first is the more potent here.

Cc1cnc(N[C@H]2CC[C@@H](NC(=O)c3ccc(Cl)c(F)c3)CC2)nc1N(C)C [Example 3387, 4-Chloro-N-[cis-4-(4-dimethylamino5-methyl-pyrimidin-2-ylamino)-cyclohexyl]3-fluoro-benzamide hydrochloride] and Cc1cnc(N[C@H]2CC[C@@H](NC(=O)c3cc(F)cc(Cl)c3)CC2)nc1N(C)C [Example 3388, 3-Chloro-N-[cis-4-(4-dimethylamino5-methyl-pyrimidin-2-ylamino)-cyclohexyl]5-fluoro-benzamide hydrochloride] cannot be ordered by IC50: under 50 nM for the first, under 50 nM for the second.

Cc1cnc(N[C@H]2CC[C@@H](NC(=O)c3cc(F)cc(F)c3)CC2)nc1N(C)C [Example 3390, N-[cis-4-(4-Dimethylamino-5-methyl-pyrimidin-2-ylamino)-cyclohexyl]-3,5-difluoro-benzamide hydrochloride] and Cc1cnc(N[C@H]2CC[C@@H](NC(=O)Cc3ccc(F)c(F)c3)CC2)nc1N(C)C [Example 3391, 2-(3,4-Difluoro-phenyl)-N-[cis-4-(4-dimethylamino-5-methyl-pyrimidin-2-ylamino)-cyclohexyl]-acetamide hydrochloride] cannot be ordered by IC50: under 50 nM for the first, under 50 nM for the second.

CN(C)c1ccnc(N[C@H]2CC[C@@H](NC(=O)COc3ccc(Cl)c(Cl)c3)CC2)n1 [Example 3393, 2-(3,4-Dichloro-phenoxy)-N-[cis-4-(4-dimethylamino-pyrimidin-2-ylamino)-cyclohexyl]-acetamide hydrochloride] and COc1cccc(OCC(=O)N[C@H]2CC[C@@H](Nc3nccc(N(C)C)n3)CC2)c1 [Example 3394, N-[cis-4-(4-Dimethylamino-pyrimidin-2-ylamino)-cyclohexyl]-2-(3-methoxy-phenoxy)-acetamide hydrochloride] cannot be ordered by IC50: under 50 nM for the first, under 50 nM for the second.

Cc1cc(N[C@H]2CC[C@@H](NC(=O)c3cncc(Cl)c3)CC2)nc2ccccc12 [Example 3396, 5-Chloro-N-[cis-4-(4-methyl-quinolin-2-ylamino)-cyclohexyl]-nicotinamide] gave an IC50 of under 50 nM.

Reference: patent US20050197350A1, “Novel quinoline, tetrahydroquinazoline, and pyrimidine derivatives and methods of treatment related to the use thereof” (TAISHO PHARMACEUTICAL CO., LTD., priority 2003, published 2005)
